Reference: patent US20260000713A1, “MICROBIAL M[…] INTESTINAL INFLAMMATION” (CEDARS-SINAI MEDICAL CENTER, priority 2021, published 2026)
Where two headings read alike, the source gives them in different places.

Legend:
[1] = tested on: GF WT mice or GF Tl1a-tg mice; conditions: 200 mM sodium acetate in drinking water for 3 months, vs regular drinking water
Procedure: (§1) Histology Scoring: Ileal tissues were collected 1-2 cm long near cecum, paraffin-embedded and stained with H&E for histological analysis. Severity of ileal inflammation was evaluated in a blinded manner according to previously described criteria by two trained animal pathologists. Spontaneous ileitis was evaluated by scoring the degree of inflammation, extent of involvement, crypt damage and villus changes as described. GF mice were evaluated using a scoring criterion.
The impact of acetate on the development of ileitis was examined.
(§2) Acetate supplementation: Sodium acetate (Sigma Aldrich) was added at 200 mM to drinking water. SPF mice were supplemented with acetate water for 2 or 4 months starting at 2 months of age. GF mice were supplemented with acetate water for 3 months starting at 2-3 months of age.
12-week-old littermate GF WT mice or GF Tl1a-tg mice were treated with 200 mM of sodium acetate in drinking water (ad libitum) for 3 months. […] The number of mice used was 12 to 22 mice per group.

IFN-γ = conditions: MLN cells restimulated with anti-CD3ε and anti-CD28 for 3 days
Procedure: as §2
Isolation of mesenteric lymph nodes mononuclear cells, restimulation, and ELISA: Mesenteric lymph nodes (MLN) were removed from the peritoneal cavity and mesenteric fat was removed. Single cell suspension was prepared by crushing MLN between two glass slides and passing the cell suspension through a 40 μm cell strainer. Single-cell suspensions were restimulated with anti-CD3ε (0.5 μg/ml) and anti-CD28 (1 μg/ml) antibodies for 3 days. Cytokine levels in supernatants were measured by ELISA. Cytokine concentration in culture supernatants was assayed by ELISA for murine IFN-γ (eBioscience).
(§3) The groups depicted include WT H2O, WT Ac (acetate), Tl1a-tg H2O, and Tl1a-tg Ac. Around 12-19 mice were used in each group. […] Around 6 mice were used per group.

Paneth cells = conditions: acetate treated GF WT or Tl1a-tg mice
Procedure: as §2, §3

[2] = tested on: SPF WT mice or tl1a-tg mice
Procedure: as §1, §2
In a second set of experiments, SPF WT mice or tl1a-tg mice were treated with acetate in drinking water for 2 or 4 months starting at 2 months of age. […] 9 to 23 mice were used per group.

[3] = tested on: Germ-free IBD susceptible mice; conditions: Germ-free Tl1a-Tg mice receiving acetate vs standard water
Procedure: as §2

With `CC(=O)[O-].[Na+]` [acetate, Sodium acetate] the “ileal inflammation (ileum histoscore)” value ([1]; GF Tl1a-tg mice) was “developed ileal inflammation”, the “ileal inflammation (ileum histoscore)” value ([1]; GF WT mice) was “developed ileal inflammation” and the “IFN-γ secretion by MLN” value (IFN-γ; acetate treated GF Tl1a-tg mice) was “significantly elevated IFN-γ secretion”. For the same molecule, the “IFN-γ secretion by MLN” value (IFN-γ; acetate treated GF WT mice) was “significantly elevated IFN-γ secretion”, the “Paneth cell granule maturation (percentage of Paneth cells with D0, D1, D2, D3 features)” value (Paneth cells) was “did not result in normal Paneth cell granule maturation” and the “ileitis (histoscore)” value ([2]; SPF Tl1a-tg mice, acetate in drinking water for 2 months starting at 2 months of age, vs age-matched water controls) was “led to ileitis”. The “ileal inflammation (histoscore)” value ([2]; SPF WT mice, acetate in drinking water for 4 months starting at 2 months of age, vs water controls) was “developed ileal inflammation” and the “cecal collagen deposition (fibrosis)” value [3] was “increase in cecal collagen deposition”.
